“And” between values parts separate entries of the source, which are not always exact repeats. Equal values may be shown once. Read-outs that look alike come from different tables or passages of the source.
Key:
[1] = target: GluA2flip(R)-stargazin (A2R-stg TetON HEK293 cells) (Homo sapiens, UniProt P42262, Q607R); test: Voltage-sensitive dye (VSD) assay (primary screen, counter-screen, CRC) on A2R-stg cells; details: for BaselineReturn: max 250-255 s minus min 0-5 s; for CMPDmaxmin: max-min 8-100 s; for CMPDmaxmin / CMPDSlope: only compound present; for Glumaxmin: max-min normalized value 301-380 s; for Glumaxmin / GluSlope: compound and glutamate present; for GluSlope: slope 310-315 s; for CMPDSlope: slope 11-18 s
Protocol: Cell lines used in the VSD assays were TetON HEK293 cells. […] We used GluA2flip(R) TetON HEK cell clone #4 that doxycycline (DOX) dependently expresses GluA2flip(R) (A2R). The A2R cells were used as the base cell line to derive cell lines that co-express auxiliary subunits.
(§1) Greiner 384-pp round-bottom plates containing glutamate for the second add were dispensed by hand using a multi-channel pipet at 5X final concentration. A2R-stg cells were plated in 384-well BD PureCoat amine-coated plates (Corning Life Sciences) at 16k cells/well in DMEM medium supplemented with 10% heat-inactivated FBS and 100U/mL PenStrep antibiotic. […] Cells were incubated overnight (O/N) and washed 4 times in HBSS containing 20 mM HEPES, pH 7.4, on an ELX405CW liquid aspirator and dispenser (BioTek). Buffer was left in the wells and an equal amount of 2X FLIPR dye solution was added and incubated on the cells at room temperature for 45 min. Fluorescence signal was collected at 1 Hz using Ex. 480±20 nm/Em. 540±40 nm on a Hamamatsu Functional Drug Screening System 6000 (FDSS). Baseline signal was collected for 10 seconds followed by addition of 10 μl of 5X compound for a final concentration of 10 μM.
Hits were selected from this initial screen using 4 different criteria, which we termed CMPDslope, CMPDmaxmin, GLUslope, and GLUmaxmin. […] GLUslope is the fitted slope of the increase in fluorescence within 10 sec after adding glutamate. GLUmaxmin is the difference in the minimum and maximum value in fluorescence signal reached in the 100 sec window after adding glutamate. Compounds were classified as hits if they differed by 3 standard deviations of the mean for each criterion. Tier 1 hits were classified as those that hit in the GLUslope, GLUmaxmin, and CMPDmaxmin windows. Tier 2 hits were classified as compounds that hit in the GLUslope window and either the GLUmaxmin or CMPDmaxmin window. Tier 3 hits were classified as those that hit in only the GLUslope or the GLUmaxmin window. Tier 4 hits were classified as compounds that hit only in the CMPD window, CMPDslope or CMPDmaxmin. Hit selection was further narrowed using the criterion that their signal must return to near baseline values before entering the glutamate add window.
VSD concentration response curves (CRCs): After the above counter-screens, compounds that remained positive were moved forward to collect complete CRCs for A2R-stg and A2R-C3 cell lines. This assay was carried out in the same way as the VSD screening assay except a 10-point concentration curve, from 40 μM to 10 nM, was plated in triplicate for each compound on a single 384-well plate. Data were summarized by plotting them as %max GLUslope against log [compound] that was fit to a four-parameter logistical model. %max GLUslope is defined as a normalized GLUslope expressed as a percentage of the mean maximum GLUslope, defined as 100, where background mean vehicle control (VHLslope) were subtracted from both values on a per plate basis. Thus, %max GLU slope = (GLUslope-mean VHLslope/mean maxGLUslope-mean VHLslope).

[2] = tested on: GluA2-stargazin; details: previously reported; cited from earlier work
[3] = target: GluA2flip(R)-CNIH3 (A2R-C3 TetON HEK293 cells) (Homo sapiens, UniProt P42262, Q607R); test: VSD assay (counter-screen, CRC) on A2R-C3 cells; details: for CMPDmaxmin: max-min 8-100 s; for CMPDmaxmin / CMPDSlope: compound only; for Glumaxmin: max-min normalized value 301-380 s; for Glumaxmin / GluSlope: compound+glutamate; for BaselineReturn: max 250-255 s minus min 0-5 s; for GluSlope: slope of normalized value 310-315 s; for CMPDSlope: slope 11-18 s
Description: Cell lines used in the VSD assays were TetON HEK293 cells. This was the parental cell line for all stable cell lines created. We used GluA2flip(R) TetON HEK cell clone #4 that doxycycline (DOX) dependently expresses GluA2flip(R) (A2R). The A2R cells were used as the base cell line to derive cell lines that co-express auxiliary subunits.
as §1
This assay was carried out in the same way as the VSD screening assay except a 10-point concentration curve, from 40 μM to 10 nM, was plated in triplicate for each compound on a single 384-well plate. Data were summarized by plotting them as %max GLUslope against log [compound] that was fit to a four-parameter logistical model. %max GLUslope is defined as a normalized GLUslope expressed as a percentage of the mean maximum GLUslope, defined as 100, where background mean vehicle control (VHLslope) were subtracted from both values on a per plate basis. Thus, %max GLU slope = (GLUslope-mean VHLslope/mean maxGLUslope-mean VHLslope).

[4] = 3.90625e-6 M, per well, plate 58169DST7
[5] = 7.8125e-6 M, per well, plate 58169DST7
[6] = 1.5625e-5 M, per well, plate 58169DST7
[7] = 3.125e-5 M, per well, plate 58169DST7
[8] = 6.25e-5 M, per well, plate 58169DST7

GluA2flip(R)-stargazin (A2R-stg TetON HEK293 cells), sequence (P42262 25-883 isoform P42262-2 Q607R limits assumed): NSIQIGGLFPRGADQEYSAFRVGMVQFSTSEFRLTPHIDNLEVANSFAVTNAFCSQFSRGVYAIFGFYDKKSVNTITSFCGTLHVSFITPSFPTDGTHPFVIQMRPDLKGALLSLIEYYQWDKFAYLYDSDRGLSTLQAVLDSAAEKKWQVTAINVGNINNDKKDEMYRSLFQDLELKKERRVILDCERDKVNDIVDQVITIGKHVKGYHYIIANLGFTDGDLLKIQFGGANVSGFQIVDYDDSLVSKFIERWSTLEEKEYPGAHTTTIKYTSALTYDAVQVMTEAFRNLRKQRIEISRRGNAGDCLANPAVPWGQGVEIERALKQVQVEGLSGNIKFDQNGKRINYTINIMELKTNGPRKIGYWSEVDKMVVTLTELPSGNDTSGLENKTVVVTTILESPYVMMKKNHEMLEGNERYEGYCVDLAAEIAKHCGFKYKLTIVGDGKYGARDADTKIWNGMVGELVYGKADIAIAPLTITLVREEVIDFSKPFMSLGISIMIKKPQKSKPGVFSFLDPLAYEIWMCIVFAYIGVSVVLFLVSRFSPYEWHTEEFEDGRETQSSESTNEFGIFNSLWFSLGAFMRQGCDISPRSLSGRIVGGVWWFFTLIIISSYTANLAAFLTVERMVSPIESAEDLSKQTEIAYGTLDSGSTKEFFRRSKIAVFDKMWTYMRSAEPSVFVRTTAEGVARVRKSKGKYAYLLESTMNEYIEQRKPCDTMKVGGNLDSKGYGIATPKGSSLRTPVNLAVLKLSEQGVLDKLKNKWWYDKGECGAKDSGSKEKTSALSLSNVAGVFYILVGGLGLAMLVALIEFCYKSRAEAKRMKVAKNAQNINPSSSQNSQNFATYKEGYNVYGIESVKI
GluA2flip(R)-stargazin (A2R-stg TetON HEK293 cells), sequence (Q9Y698 whole entry partner): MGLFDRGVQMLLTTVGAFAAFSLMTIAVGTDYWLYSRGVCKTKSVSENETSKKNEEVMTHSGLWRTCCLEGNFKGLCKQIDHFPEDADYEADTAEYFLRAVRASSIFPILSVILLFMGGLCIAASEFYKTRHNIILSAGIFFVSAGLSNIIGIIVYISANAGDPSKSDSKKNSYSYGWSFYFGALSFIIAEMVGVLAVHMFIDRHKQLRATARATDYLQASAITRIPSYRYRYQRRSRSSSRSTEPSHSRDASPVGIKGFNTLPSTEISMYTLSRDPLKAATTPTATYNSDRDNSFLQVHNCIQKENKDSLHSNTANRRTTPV
GluA2flip(R)-CNIH3 (A2R-C3 TetON HEK293 cells), sequence (P42262 25-883 isoform P42262-2 Q607R limits assumed): as the sequence (P42262 25-883 isoform P42262-2 Q607R limits assumed) above
GluA2flip(R)-CNIH3 (A2R-C3 TetON HEK293 cells), sequence (Q8TBE1 whole entry partner): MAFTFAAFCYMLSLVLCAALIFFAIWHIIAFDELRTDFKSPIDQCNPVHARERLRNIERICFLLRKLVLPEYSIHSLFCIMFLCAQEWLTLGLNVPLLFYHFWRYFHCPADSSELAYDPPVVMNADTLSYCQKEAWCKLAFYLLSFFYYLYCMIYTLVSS

O=C(c1ccc2c(c1)OCCO2)N1CCCCC1 [CX-546, 1-(1,4-benzodioxan-6-ylcarbonyl)piperidine]
EC50 [1]: 59.4 µM | CMPDmaxmin (maximal - minimal normalized value, 8-100 s, only compound present) [1, 4]: 0.02005 and 0.02265 and 0.02255 and 0.0215 and 0.02263 | pctMAX (Glumaxmin as percentage MAX) [1, 4]: -20.3423% and -18.5877% and -17.4231% and -25.653% and -23.4431% | pctMAXslope (GluSlope as percentage MAX) [1, 4]: 19.0119% and 16.1163% and 16.1435% and 23.5293% and 24.5477% and 19.9769% | pctMAXslopeCMPD (CMPDSlope as percentage MAX) [1, 4]: 26.8078% and 27.859% and 27.6784% and 25.3948% and 25.8066% and 27.049% | CMPDmaxmin (maximal - minimal normalized value, 8-100 s, only compound present) [1, 5]: 0.02204 and 0.02518 and 0.02221 and 0.01901 | pctMAXslope (GluSlope as percentage MAX) [1, 5]: 18.0524% and 15.893% and 18.8435% and 18.5798% and 25.5404% and 27.1839% | pctMAXslopeCMPD (CMPDSlope as percentage MAX) [1, 5]: 27.7492% and 27.8022% and 28.8582% and 27.2592% and 26.4835% and 26.0048% | CMPDmaxmin (maximal - minimal normalized value, 8-100 s, only compound present) [1, 6]: 0.02181 and 0.01695 and 0.02869 and 0.01943 and 0.02297 | pctMAXslopeCMPD (CMPDSlope as percentage MAX) [1, 6]: 28.6064% and 25.6086% and 27.9557% and 25.483% and 25.9044% and 26.6639% | pctMAX (Glumaxmin as percentage MAX) [1, 7]: -24.1315% and -27.3641% and -24.1538% and -25.136% and -22.907% and -18.6431% | pctMAXslope (GluSlope as percentage MAX) [1, 7]: 27.6745% and 23.6277% and 22.7715% and 21.1161% and 24.5423% and 29.8099% | pctMAXslopeCMPD (CMPDSlope as percentage MAX) [1, 7]: 26.044% and 27.2438% and 26.2272% and 24.5792% and 27.7844% and 28.3201% | BaselineReturn (maximal normalized value 250-255 s minus minimal 0-5 s) [1, 8]: 0.01812 and 0.0231 and 0.02286 | CMPDmaxmin (maximal - minimal normalized value, 8-100 s, only compound present) [1, 8]: 0.02793 and 0.02317 and 0.02528 | pctMAXslope (GluSlope as percentage MAX) [1, 8]: 40.7941% and 49.9185% and 35.6482% | pctMAXslopeCMPD (CMPDSlope as percentage MAX) [1, 8]: 27.4558% and 28.8276% and 28.6616% | BaselineReturn ([1]; 6.25e-5 M): 0.01973 and 0.018 and 0.01152 | CMPDmaxmin ([1]; 6.25e-5 M): 0.02536 and 0.01826 and 0.01839 | Glumaxmin ([1]; 6.25e-5 M): 0.2031 and 0.2196 and 0.1717 | GluSlope ([1]; 6.25e-5 M): 6.2051e-6 and 9.036e-6 and 7.987e-6 | BaselineReturn ([1]; 0.00025 M): 0.05169 and 0.04966 and 0.04304 and 0.05412 and 0.05858 and 0.04633 | CMPDmaxmin ([1]; 0.00025 M): 0.05366 and 0.04763 and 0.04669 and 0.05717 and 0.05497 and 0.04716 | Glumaxmin ([1]; 0.00025 M): 0.3546 and 0.3256 and 0.3581 and 0.3601 and 0.3987 and 0.3619 | CMPDSlope ([1]; 0.00025 M): 2.511e-6 and 1.582e-6 and 1.531e-6 and 1.914e-6 and 1.992e-6 and 1.6067e-6 | GluSlope ([1]; 0.00025 M): 1.516e-5 and 1.442e-5 and 1.434e-5 and 1.326e-5 and 1.8177e-5 and 1.566e-5 | BaselineReturn ([1]; 0.0005 M): 0.1016 and 0.09236 and 0.09814 and 0.1005 and 0.08945 and 0.09494 | CMPDmaxmin ([1]; 0.0005 M): 0.09292 and 0.08599 and 0.08883 and 0.08871 and 0.09266 and 0.08518 | Glumaxmin ([1]; 0.0005 M): 0.4227 and 0.415 and 0.4148 and 0.4609 and 0.4831 and 0.4327 | CMPDSlope ([1]; 0.0005 M): 3.674e-6 and 4.188e-6 and 3.738e-6 and 3.852e-6 and 5.683e-6 and 4.257e-6 | GluSlope ([1]; 0.0005 M): 1.777e-5 and 1.508e-5 and 1.548e-5 and 1.731e-5 and 1.8778e-5 and 1.858e-5 | BaselineReturn ([1]; 0.001 M): 0.1819 and 0.178 and 0.2248 and 0.2011 and 0.1897 and 0.1856 | CMPDmaxmin ([1]; 0.001 M): 0.1715 and 0.1673 and 0.213 and 0.1892 and 0.174 and 0.1789 | Glumaxmin ([1]; 0.001 M): 0.4573 and 0.4826 and 0.4107 and 0.4115 and 0.4861 and 0.4796 | CMPDSlope ([1]; 0.001 M): 9.085e-6 and 8.904e-6 and 9.403e-6 and 8.729e-6 and 8.585e-6 and 8.384e-6 | GluSlope ([1]; 0.001 M): 1.548e-5 and 1.672e-5 (2×) and 1.1033e-5 and 1.693e-5 and 1.578e-5 | activity at 250 µM ([1]; HEK293, read-out: AVE %MAXCMPDslope, 0.00025 M, average of wells): 30.3% | activity at 500 µM ([1]; HEK293, read-out: AVE %MAXCMPDslope, 0.0005 M, average of wells): 34.5% | activity at 1000 µM ([1]; HEK293, read-out: AVE %MAXCMPDslope, 0.001 M, average of wells): 42.6% | activity at […] ([1]; HEK293, read-out: AVE %MAXCMPDslope, […], average of wells): 29.5% | activity at 250 µM ([1]; HEK293, read-out: AVE %MAXslope, 0.00025 M, average of wells): 53.6% | activity at 500 µM ([1]; HEK293, read-out: AVE %MAXslope, 0.0005 M, average of wells): 57.1% | activity at 1000 µM ([1]; HEK293, read-out: AVE %MAXslope, 0.001 M, average of wells): 54.1% | activity at […] ([1]; HEK293, read-out: AVE %MAXslope, […], average of wells): 47% | activity at 250 µM ([1]; HEK293, read-out: pctMAX, 0.00025 M, Glumaxmin as percentage MAX (vhl and glutamate controls)): 30.3% | activity at 500 µM ([1]; HEK293, read-out: pctMAX, 0.0005 M, Glumaxmin as percentage MAX (vhl and glutamate controls)): 42.2% | activity at 1000 µM ([1]; HEK293, read-out: pctMAX, 0.001 M, Glumaxmin as percentage MAX (vhl and glutamate controls)): 48.3% | activity at 250 µM ([1]; HEK293, read-out: pctMAXslope, 0.00025 M, GluSlope as percentage MAX): 53.6% | activity at 500 µM ([1]; HEK293, read-out: pctMAXslope, 0.0005 M, GluSlope as percentage MAX): 58.2% | activity at 1000 µM ([1]; HEK293, read-out: pctMAXslope, 0.001 M, GluSlope as percentage MAX): 54.2% | activity at […] ([1]; HEK293, read-out: pctMAXslope, […], GluSlope as percentage MAX): 49.2% | activity at 250 µM ([1]; HEK293, read-out: pctMAXslopeCMPD, 0.00025 M, CMPDSlope as percentage MAX): 31.5% | activity at 500 µM ([1]; HEK293, read-out: pctMAXslopeCMPD, 0.0005 M, CMPDSlope as percentage MAX): 33.5% | activity at 1000 µM ([1]; HEK293, read-out: pctMAXslopeCMPD, 0.001 M, CMPDSlope as percentage MAX): 43% | activity at […] ([1]; HEK293, read-out: pctMAXslopeCMPD, […], CMPDSlope as percentage MAX): 28.5% | concentrations giving a slight increase in fluorescence in the absence of glutamate ([1]; compound-only window): > 250 µM | EC50 [2]: 563 µM | CMPDmaxmin ([3]; 3.90625e-6 M ligand, per well): 0.02275 and 0.02429 and 0.01798 and 0.02168 | CMPDmaxmin ([3]; 7.8125e-6 M ligand, per well): 0.02523 and 0.02353 and 0.02165 and 0.01735 | Glumaxmin ([3]; 7.8125e-6 M ligand, per well): 0.04101 and 0.05338 and 0.04284 and 0.03307 and 0.0299 and 0.0291 | CMPDmaxmin ([3]; 6.25e-5 M ligand, per well): 0.02083 and 0.02655 and 0.02189 and 0.02084 and 0.01632 | Glumaxmin ([3]; 6.25e-5 M ligand, per well): 0.04091 and 0.0333 and 0.02423 and 0.04193 and 0.044 and 0.03344 | BaselineReturn ([3]; 0.00025 M ligand, per well): 0.0251 and 0.02832 and 0.03028 and 0.03411 and 0.02776 and 0.02771 | CMPDmaxmin ([3]; 0.00025 M ligand, per well): 0.02518 and 0.02777 and 0.02573 and 0.03151 and 0.03447 and 0.02604 | Glumaxmin ([3]; 0.00025 M ligand, per well): 0.07039 and 0.07337 and 0.08523 and 0.112 and 0.08025 | GluSlope ([3]; 0.00025 M ligand, per well): 6.934e-6 and 8.592e-6 and 7.437e-6 and 1.202e-5 and 1.111e-5 and 6.283e-6 | BaselineReturn ([3]; 0.0005 M ligand, per well): 0.05295 and 0.05148 and 0.05075 and 0.04719 and 0.05673 and 0.04937 | CMPDmaxmin ([3]; 0.0005 M ligand, per well): 0.05637 and 0.05305 and 0.05109 and 0.05302 and 0.05564 and 0.06158 | Glumaxmin ([3]; 0.0005 M ligand, per well): 0.1143 and 0.1458 and 0.1743 | CMPDSlope ([3]; 0.0005 M ligand, per well): 2.7882e-6 and 3.22e-6 and 3.04e-6 and 3.857e-6 and 3.969e-6 and 3.136e-6 | GluSlope ([3]; 0.0005 M ligand, per well): 1.038e-5 and 1.007e-5 and 1.121e-5 and 1.228e-5 and 1.22e-5 and 1.66e-5 | BaselineReturn ([3]; 0.001 M ligand, per well): 0.1285 and 0.1243 and 0.1327 (2×) and 0.1383 and 0.1333 | CMPDmaxmin ([3]; 0.001 M ligand, per well): 0.1223 and 0.1248 and 0.1314 and 0.1303 and 0.1374 and 0.1301 | CMPDSlope ([3]; 0.001 M ligand, per well): 6.79e-6 and 6.675e-6 and 5.635e-6 and 5.488e-6 and 6.247e-6 and 7.073e-6 | activity at 250 µM ([3]; HEK293, read-out: AVE %MAXCMPDslope, 0.00025 M ligand, average over wells): 20.2% | activity at 1000 µM ([3]; HEK293, read-out: AVE %MAXCMPDslope, 0.001 M ligand, average over wells): 29.1% | activity at […] ([3]; HEK293, read-out: AVE %MAXCMPDslope, […] ligand, average over wells): 18.9% | activity at 250 µM ([3]; HEK293, read-out: AVE %MAXslope, 0.00025 M ligand, average over wells): 33.8% | activity at 500 µM ([3]; HEK293, read-out: AVE %MAXslope, 0.0005 M ligand, average over wells): 40.3% | activity at 1000 µM ([3]; HEK293, read-out: AVE %MAXslope, 0.001 M ligand, average over wells): 54.1% | activity at […] ([3]; HEK293, read-out: AVE %MAXslope, […] ligand, average over wells): 25.6% | activity at 250 µM ([3]; HEK293, read-out: pctMAXslope, 0.00025 M ligand, GluSlope as percentage MAX, per well): 30.3% | activity at 500 µM ([3]; HEK293, read-out: pctMAXslope, 0.0005 M ligand, GluSlope as percentage MAX, per well): 37% | activity at […] ([3]; HEK293, read-out: pctMAXslope, […] ligand, GluSlope as percentage MAX, per well): 21% | activity at 250 µM ([3]; HEK293, read-out: pctMAXslopeCMPD, 0.00025 M ligand, CMPDSlope as percentage MAX of GluSlope controls, per well): 19.4% | activity at 500 µM ([3]; HEK293, read-out: pctMAXslopeCMPD, 0.0005 M ligand, CMPDSlope as percentage MAX of GluSlope controls, per well): 22.3% | activity at 1000 µM ([3]; HEK293, read-out: pctMAXslopeCMPD, 0.001 M ligand, CMPDSlope as percentage MAX of GluSlope controls, per well): 30% | activity at […] ([3]; HEK293, read-out: pctMAXslopeCMPD, […] ligand, CMPDSlope as percentage MAX of GluSlope controls, per well): 18.5%
